Reference: US10774084B2, “Adenine derivatives and their use as UV-photoprotective agents” (UNIVERZITA PALACKEHO V OLOMOUCI, priority 2015, dated 2020)

Legend:
[1] = tested on: Triticum aestivum cv. Hereward leaf segments; assay: Senescence bioassay on detached wheat leaf segments (chlorophyll retention); conditions: for maximum effective concentration: 96 h in the dark; for activity (%) [10^−4 mol · l^−1 BAP = 100%]: at maximum effective concentration
Method: Seeds of winter wheat, Triticum aestivum cv. Hereward, were washed under running water for 24 hours and then sown on vermiculite soaked with Knop's solution. They were placed in the growth chamber at 25° C. with a 16/8 h light period at […]. After 7 days, the first leaf was fully developed and the second leaf had started to grow. A tip section of the first leaf, approximately 35 mm long, was removed from 5 seedlings and trimmed slightly to a combined weight of 100 mg. The basal ends of the five leaf tips were placed in the wells of a microtiter polystyrene plate containing 150 μL of the tested derivative solution each. The entire plate was inserted into a plastic box lined with paper tissues soaked in distilled water to prevent leaf sections from drying out. After 96 h incubation in the dark at 25° C., the leaves were removed and chlorophyll extracted by heating at 80° C. for 10 min in 5 mL of 80% ethanol (v/v). The sample volume was then restored to 5 mL by the addition of 80% ethanol (v/v). The absorbance of the extract was recorded at 665 nm. In addition, chlorophyll extracts from fresh leaves and leaf tips incubated in deionised water were measured. The results are means of five replicates and the entire test was repeated twice. […] The compounds to be tested were dissolved in dimethylsulfoxide (DMSO) and the solution brought up to 10^−3 M with distilled water. […] The activity obtained for 10^−4 M of BAP was postulated as 100%. Kinetin was used as the second standard. Newly prepared compounds generally exceeded the efficiency of standard (BAP) by 10% of its activity (Tab. 5).

ROS production = assay: UVA-induced ROS production in NHDF (H2DCFDA); type: cell-based, human
Text: (§1) Normal human dermal fibroblasts (NHDF) were used as an in vitro model. Cells were isolated from tissue specimens obtained from healthy patients undergoing plastic surgery at the Department of Plastic and Aesthetic Surgery (University Hospital Olomouc). The use of skin tissue was in accordance with the Ethics Committee of the University Hospital and Faculty of Medicine and Dentistry, Palacky University, Olomouc and all patients signed written informed consent. Fibroblasts were used between the 2nd and 4th passage. […]
(§2) Test compounds included 6-(tetrahydrofuran-2-ylmethylamino)-9-(tetrahydrofuran-2-yl)purine and positive control (rosmarinic acid). […] Intensity of UVA radiation was evaluated before each irradiation by UVA-meter. […] After 1 hour (37° C., 5% CO2) cell damage was evaluated by analysis of reactive oxygen species (ROS) production. In parallel, intracellular levels of glutathion (GSH) were measured 4 hours (37° C., 5% CO2) after UVA application.
ROS production was evaluated by 2,7-Dichlorodihydrofluorescein diacetate (H2DCFDA). […] Samples were applied on 96-well plate and fluorescence was measured (488/525 nm) (INFINITE M200, Tecan, Switzerland) after centrifugation (10 000 rpm, 4° C., 10 min). Protein content was analyzed spectrophotometrically by bicinchoninic acid at 562 nm (INFINITE M200, Tecan, Switzerland). […]

GSH depletion = assay: UVA-induced GSH depletion in NHDF (DTNB); type: cell-based, human
Text: as §1, §2
GSH levels in NHDF were evaluated by reaction with 5,5′-Dithiobis(2-nitrobenzoic acid) (DTNB). […] Absorbance was measured at 412 nm. Protein content was analyzed spectrophotometrically by Lowry's method at 680 nm.
Activity of test compounds (not irradiated) in analyzed parameters were evaluated by comparison of experimental data according to the following equation: […]

[2] = non-irradiated NHDF, 2.5-20 μmol/l

## c1nc(NCC2CCCO2)c2ncn(C3CCCO3)c2n1 (stereo not shown) [Compound 1, 6-(tetrahydrofuran-2-ylmethylamino)-9-(tetrahydrofuran-2-yl)purine]
[1]
  maximum effective concentration: 10^−4 mol · l^−1
  activity (%) [10^−4 mol · l^−1 BAP = 100%]: 125 ± 9%
ROS production; UVA, NHDF
  protection against production of ROS in comparison with rosmarinic acid (in words): more effective
ROS production; [2]
  effect on ROS production in non-irradiated cells (in words): did not showed negative effect
GSH depletion; UVA, NHDF
  protection against GSH depletion in comparison with rosmarinic acid (in words): less effective
GSH depletion; [2]
  effect on GSH level in non-irradiated cells (in words): did not showed negative effect

## c1csc(CNc2ncnc3c2ncn3C2CCCO2)c1 (stereo not shown) [Compound 9, 6-(thiophen-2-ylmethylamino)-9-(tetrahydrofuran-2-yl)purine]
[1]
  maximum effective concentration: 10^−4 mol · l^−1
  activity (%) [10^−4 mol · l^−1 BAP = 100%]: 112 ± 5%

## Clc1nc(NCC2CCCO2)c2ncn(C3CCCO3)c2n1 (stereo not shown) [Compound 20, 2-chloro-6-(tetrahydrofuran-2-ylmethylamino)-9-(tetrahydrofuran-2-yl)purine]
[1]
  maximum effective concentration: 10^−4 mol · l^−1
  activity (%) [10^−4 mol · l^−1 BAP = 100%]: 127 ± 5%
